Where “and” joins values, the source holds several entries; their conditions need not be identical. Equal values may be shown once.
Tested on: GL3 luciferase gene
Experiment: Evaluation of each siRNA using Dual-Luc reporter system (expression-suppressive activity)
Type: cell-based, Human
Conditions: for IC50: HCT116 cells transfected with vector OFF#085 or OFF#086, siRNA reverse transfection with Lipofectamine RNAiMAX, two-night culture, luciferase activity (Renilla/firefly), Dual-Glo, read-out: 50% inhibition concentration; for suppressive activity against luciferase expression compared with control RNA: Dual-Luc reporter system, HCT116 cells, comparison drawn from Table 1
Method: Each siRNA was evaluated using a Dual-Luc reporter system as described below.
A restriction enzyme sequence was added to a sequence containing a 19-base sequence complementary to the antisense strand of siRNA against the GL3 luciferase gene (Elbashir S M et al., Nature, Vol. 411, 24 May 2001, 494-498), and its 5′-flanking 10 bases and 3′-flanking 10 bases. The resulting sequence was incorporated into the XhoI/NotI site of a psiCHECK2 plasmld (Promega KK) either in a forward direction (sequence A) or in a reverse direction (sequence B) to construct vectors for the expression of firefly Iuciferase and Renilla luciferase, OFF#085 and OFF#086, respectively.
Human colon cancer cell line HCT116 cells (ATCC) were inoculated at a density of 3×10^6 cells/10 ml/75 cm^2 flask. After overnight culture at 37° C. in 5% CO2, the cells were transfected with the vector OFF#085 or OFF#086 obtained in the preceding paragraph 1) using FuGENE 6 (F. Hoffmann-La Roche Ltd.) and further cultured overnight. Each siRNA synthesized in Example 5 and Comparative Example was diluted with PBS into two serial dilutions of 3.3 nM (final) and 0.0043 nM or 12 serial dilutions from 10 nM to 56 fM and used in reverse transfection of 1.6×10^4 cells/100 μL/well using Lipofectamine RNAiMAX reagent (Invitrogen Corp.). After two-night culture, firefly luciferase activity and Renilla luciferase activity were measured using Dual-Glo Luc Assay kit (Promega KK) according to the attached document. When the luciferase activity (Renilla/firefly) of cells reverse-transfected with 10 nM BLOCK-iT™ Alexa Fluor® Red Fluorescent Oligo (Invitrogen Corp.) was defined as 100%, the luciferase activity of the cells transfected with each siRNA was calculated. The IC50 value was calculated using GraphPad Prism 5.

Substance | IC50 | suppressive activity against luciferase expression compared with control RNA
Control RNA: Control siRNA of sense strand SEQ ID NO: 4 and antisense strand SEQ ID NO: 5, free from compound 11 or 22 (sense CUUACGCUGAGUACUUCGATT; antisense UCGAAGUACUCAGCGUAAGTT; chemistry not fully specified) [reference compound] | 0.024 nM and 0.012 nM | 
siRNA (1): siRNA of sense strand SEQ ID NO: 1 and antisense strand SEQ ID NO: 2 containing one formula (II) partial structure U(K) induced from compound 11 (sense CUUACGCUGAGUACUUCGATT; antisense UCGAAGUACUCAGCGUAAGTT; chemistry not fully specified) | 0.007 nM | higher suppressive activity
siRNA (2): siRNA of sense strand SEQ ID NO: 1 and antisense strand SEQ ID NO: 3 containing one formula (II) partial structure U(K2) induced from compound 22 (sense CUUACGCUGAGUACUUCGATT; antisense UCGAAGUACUCAGCGUAAGTT; chemistry not fully specified) | 0.009 nM | higher suppressive activity
